# Experimental data from patent US7923554B2, “HIV inhibiting 1,2,4-triazin-6-one derivatives” (Janssen Pharmaceutica N.V., priority 2004, dated 2011).
# Assays:
# HIV-1 [1] = test: microbe, parasite or virus in culture; details: Human immunodeficiency virus 1, MT4, read-out: pEC50 (-logEC50) (converted)
# Protocol: (§1) A rapid, sensitive and automated assay procedure was used for the in vitro evaluation of anti-HIV agents. […] In these cells, engineered with GFP (and an HIV-specific promotor), ongoing HIV-infection was measured fluorometrically. Cytotoxicity is measured in the same cells, but engineered with GFP under a constitutional promotor. The infection (or inhibition thereof) of HIV infected cells and the fluorescence of mock-infected cells is assessed by the fluorescent GFP signal generated by the two above mentioned cell lines.
# HIV-1 [2] = system: HIV-1
# Protocol: as §1
Structure (SMILES),EC50 (HIV-1 [1]) [nM],pEC50 (-logEC50) (HIV-1 [2]),melting point [°C]
N#C/C=C/c1cc(Br)c(Nc2n[nH]c(=O)c(Nc3ccc(C#N)cc3)n2)c(Br)c1 [Compound 26],0.631,–,–
Cc1cc(C)c(Sc2n[nH]c(=O)c(Nc3ccc(C#N)cc3)n2)c(C)c1 [Compound 41],–,9.7,–
Cc1cc(CCC#N)cc(C)c1Nc1nc(Nc2ccc(C#N)cc2)c(=O)n(CC#N)n1 [Compound 31],0.316,–,–
Cc1cc(/C=C/C#N)cc(C)c1Nc1nc(Nc2ccc(C#N)cc2)nn(C)c1=O [Compound 28],3.98,–,–
CCn1nc(Nc2c(C)cc(CCC#N)cc2C)nc(Nc2ccc(C#N)cc2)c1=O [Compound 15],–,9.7,243 to 245
CCn1nc(Nc2c(Cl)cc(CCC#N)cc2OC)nc(Nc2ccc(C#N)cc2)c1=O [Compound 73],0.631,–,–
N#C/C=C/c1cc(Cl)c(Nc2n[nH]c(=O)c(Nc3ccc(C#N)cc3)n2)c(Br)c1 [Compound 25],0.631,–,–
N#Cc1ccc(Nc2nc(Nc3c(F)cc(I)cc3F)n[nH]c2=O)cc1 [Compound 36],–,9.9,–
Cc1cc(C)c(S(=O)(=O)c2n[nH]c(=O)c(Nc3ccc(C#N)cc3)n2)c(C)c1 [Compound 52],–,8.8,–
Cn1nc(Nc2c(Br)cc(CCC#N)cc2Br)nc(Nc2ccc(C#N)cc2)c1=O [Compound 8],–,10.0,–
N#C/C=C/c1cc(F)c(Nc2n[nH]c(=O)c(Nc3ccc(C#N)cc3)n2)c(F)c1 [Compound 38],0.126,–,–
Cc1cc(C)c(Sc2nc(Nc3ccc(C#N)cc3)n[nH]c2=O)c(C)c1 [Compound 20],0.631,–,–
Cc1cc(C#N)cc(C)c1Oc1n[nH]c(=O)c(Nc2ccc(C#N)cc2)n1 [Compound 48],0.398,–,–
Cc1cc(CCC#N)cc(C)c1Oc1nc(Nc2ccc(C#N)cc2)c(=O)n(CCO)n1 [Compound 70],0.794,–,–
CCn1nc(Nc2c(C)cc(/C=C/C#N)cc2C)nc(Nc2ccc(C#N)cc2)c1=O [Compound 54],75.9,–,–
Cn1nc(Nc2c(Cl)cc(CCC#N)cc2Cl)nc(Nc2ccc(C#N)cc2)c1=O [Compound 17],1,–,–
COc1cc(/C=C/C#N)cc(C)c1Nc1n[nH]c(=O)c(Nc2ccc(C#N)cc2)n1 [Compound 29],316,–,–
CCn1nc(Nc2c(C)cc(CCC#N)cc2C)nc(Nc2ccc(C#N)cc2)c1=O [Compound 37],0.126,–,–
CCn1nc(Nc2c(C)cc(CCC#N)cc2OC)nc(Nc2ccc(C#N)cc2)c1=O [Compound 40],0.316,–,–
Cc1cc(/C=C/C#N)cc(C)c1Oc1nc(Nc2ccc(C#N)cc2)c(=O)n(C)n1 [Compound 60],2.51,–,–
COc1cc(CCC#N)cc(C)c1Nc1nc(Nc2ccc(C#N)cc2)c(=O)n(CCO)n1 [Compound 47],0.794,–,–
N#Cc1ccc(Nc2nc(Nc3c(F)cc(I)cc3F)n[nH]c2=O)cc1 [Compound 1],–,9.5,287 to 290
N#CCCn1nc(Nc2c(F)cc(Br)cc2F)nc(Nc2ccc(C#N)cc2)c1=O [Compound 11],–,9.1,246 to 247

Structure (SMILES),EC50 (HIV-1 [1]) [nM],pEC50 (-logEC50) (HIV-1 [2]),melting point [°C]
N#CCCc1cc(Cl)c(Nc2n[nH]c(=O)c(Nc3ccc(C#N)cc3)n2)c(Br)c1 [Compound 19],6.31,–,–
N#CCCc1cc(Br)c(Nc2n[nH]c(=O)c(Nc3ccc(C#N)cc3)n2)c(Br)c1 [Compound 2],0.1,–,339 to 340
Cc1cc(CCC#N)cc(C)c1Nc1n[nH]c(=O)c(Nc2ccc(C#N)cc2)n1 [Compound 32],–,8.9,–
Cc1cc(CCC#N)cc(C)c1Nc1nc(Nc2ccc(C#N)cc2)c(=O)n(CC(N)=O)n1 [Compound 33],0.631,–,–
Cc1cc(/C=C/C#N)cc(C)c1Oc1nc(Nc2ccc(C#N)cc2)c(=O)n(CCO)n1 [Compound 62],0.316,–,–
Cc1cc(C)c(S(=O)(=O)c2n[nH]c(=O)c(Nc3ccc(C#N)cc3)n2)c(C)c1 [Compound 7],–,7.7,303 to 304
Cc1cc(/C=C/C#N)cc(C)c1Nc1nc(Nc2ccc(C#N)cc2)n[nH]c1=O [Compound 27],0.2,–,–
Cc1cc(C)c(Nc2nc(Nc3ccc(C#N)cc3)nn(C)c2=O)c(C)c1 [Compound 18],12.6,–,–
N#CCCc1cc(Cl)c(Nc2n[nH]c(=O)c(Nc3ccc(C#N)cc3)n2)c(Cl)c1 [Compound 58],3.16,–,–
C/C(C#N)=C\c1cc(C)c(Nc2n[nH]c(=O)c(Nc3ccc(C#N)cc3)n2)c(C)c1 [Compound 68],1.2,–,–
COc1cc(CCC#N)cc(Cl)c1Nc1nc(Nc2ccc(C#N)cc2)c(=O)n(CCO)n1 [Compound 74],0.794,–,–
N#C/C=C/c1cc(Cl)c(Nc2n[nH]c(=O)c(Nc3ccc(C#N)cc3)n2)c(Cl)c1 [Compound 24],0.631,–,–
COc1cc(CCC#N)cc(Cl)c1Nc1nc(Nc2ccc(C#N)cc2)c(=O)n(C)n1 [Compound 72],0.631,–,–
Cc1cc(C)c(Sc2nc(Nc3ccc(C#N)cc3)nn(C)c2=O)c(C)c1 [Compound 22],15.8,–,–
Cc1cc(CCC#N)cc(C)c1Nc1n[nH]c(=O)c(Nc2ccc(C#N)cc2)n1 [Compound 5],–,9.6,–
Cc1cc(CCC#N)cc(C)c1Oc1n[nH]c(=O)c(Nc2ccc(C#N)cc2)n1 [Compound 3],0.631,–,351 to 352
Cc1cc(C#N)cc(C)c1Nc1nc(Nc2ccc(C#N)cc2)c(=O)n(C)n1 [Compound 46],0.251,–,–
Cc1cc(/C=C/C#N)cc(C)c1Oc1nc(Nc2ccc(C#N)cc2)c(=O)n(CC#N)n1 [Compound 61],1.26,–,–
Cc1cc(/C=C/C#N)cc(C)c1Nc1n[nH]c(=O)c(Nc2ccc(C#N)cc2)n1 [Compound 4],0.631,–,–
Cc1cc(C)c(Nc2nc(Nc3ccc(C#N)cc3)n[nH]c2=O)c(C)c1 [Compound 16],1,–,–
Cc1cc(CCC#N)cc(C)c1Oc1nc(Nc2ccc(C#N)cc2)c(=O)n(CC#N)n1 [Compound 53],0.398,–,–
Cc1cc(CCC#N)cc(C)c1Nc1n[nH]c(=O)c(Nc2ccc(C#N)cc2)n1 [Compound 51],–,9.6,–
Cc1cc(C)c(Sc2nc(Nc3ccc(C#N)cc3)c(=O)n(C)n2)c(C)c1 [Compound 43],0.316,–,–

Structure (SMILES),EC50 (HIV-1 [1]) [nM],pEC50 (-logEC50) (HIV-1 [2]),melting point [°C]
COc1cc(/C=C/C#N)cc(C)c1Nc1nc(Nc2ccc(C#N)cc2)c(=O)n(C)n1 [Compound 42],0.398,–,–
N#Cc1ccc(Nc2nc(Nc3c(F)cc(Br)cc3F)n[nH]c2=O)cc1 [Compound 30],–,9.2,–
COc1cc(CCC#N)c(Br)cc1Nc1n[nH]c(=O)c(Nc2ccc(C#N)cc2)n1 [Compound 67],1.51,9.0,–
C/C(=C\C#N)c1cc(C)c(Nc2n[nH]c(=O)c(Nc3ccc(C#N)cc3)n2)c(C)c1 [Compound 77],0.794,–,–
Cc1cc(CCC#N)cc(C)c1Nc1nc(Nc2ccc(C#N)cc2)c(=O)n(CC#N)n1,–,–,243 to 246
Cc1cc(CCC#N)cc(C)c1Nc1nc(Nc2ccc(C#N)cc2)c(=O)n(CCO)n1 [Compound 14],0.316,–,–
COc1cc(CCC#N)cc(Cl)c1Nc1nc(Nc2ccc(C#N)cc2)c(=O)n(CC#N)n1 [Compound 75],0.794,–,–
Cn1nc(Nc2c(Cl)cc(CCC#N)cc2Br)nc(Nc2ccc(C#N)cc2)c1=O [Compound 21],1,–,–
Cc1cc(/C=C/C#N)cc(C)c1Oc1n[nH]c(=O)c(Nc2ccc(C#N)cc2)n1 [Compound 59],1.26,–,–
Cc1cc(C#N)cc(C)c1Oc1nc(Nc2ccc(C#N)cc2)c(=O)n(C)n1 [Compound 50],0.158,–,–
COc1cc(/C=C/C#N)cc(Cl)c1Nc1n[nH]c(=O)c(Nc2ccc(C#N)cc2)n1 [Compound 71],0.794,–,–
N#CCCn1nc(Nc2c(F)cc(Br)cc2F)nc(Nc2ccc(C#N)cc2)c1=O [Compound 34],–,8.5,–
C/C(=C\C#N)c1cc(C)c(Nc2nc(Nc3ccc(C#N)cc3)c(=O)n(C)n2)c(C)c1 [Compound 78],0.794,–,–
COc1cc(CCC#N)cc(C)c1Nc1n[nH]c(=O)c(Nc2ccc(C#N)cc2)n1 [Compound 39],0.1,–,–
N#CCCc1cc(Br)c(Nc2n[nH]c(=O)c(Nc3ccc(C#N)cc3Br)n2)c(Br)c1 [Compound 49],0.316,–,–
Cn1nc(Nc2c(Br)cc(CCC#N)cc2Br)nc(Nc2ccc(C#N)cc2)c1=O [Compound 55],–,9,–
Cc1cc(C)c(Sc2n[nH]c(=O)c(Nc3ccc(C#N)cc3)n2)c(C)c1 [Compound 6],–,7.8,–
Cc1cc(CCC#N)cc(C)c1Nc1nc(Nc2ccc(C#N)cc2)c(=O)n(C)n1 [Compound 9],0.501,–,317 to 320
N#Cc1ccc(Nc2nc(Nc3c(F)cc(Br)cc3F)n[nH]c2=O)cc1 [Compound 10],0.316,–,–
CCn1nc(Oc2c(C)cc(CCC#N)cc2C)nc(Nc2ccc(C#N)cc2)c1=O [Compound 69],0.891,–,–
COc1cc(C)c(Nc2nc(Nc3ccc(C#N)cc3)c(=O)n(C)n2)c(C)c1 [Compound 35],10,–,–
Cc1cc(CCC#N)cc(C)c1Oc1nc(Nc2ccc(C#N)cc2)c(=O)n(C)n1 [Compound 56],0.631,–,–
Cc1cc(C)c(Nc2n[nH]c(=O)c(Nc3ccc(C#N)cc3)n2)c(C)c1 [Compound 23],0.794,–,–
